The source of these data is patent US11166942B2 (PRAXIS BIOTECH LLC, priority 2018, dated 2021).

One test deals with ATF4. Kind of test: ATF4 expression inhibition assay (ATF4 5'UTR luciferase reporter, Tg-stressed HEK293T cells). The format is cell-based, human. To be noted: for inhibition at 0.1 µM: read-out: % ATF4 inhibition at 100 nM; for inhibition at 1 µM: read-out: % ATF4 inhibition at 1 μM; for IC50: read-out: ATF4 inhbition IC50. On the procedure: The ATF4 reporter was prepared by fusing the human full length 5′UTR of ATF4 (NCBI Accession No. BC022088.2) upstream of the firefly luciferase coding sequence lacking the initiator methionine. The fused sequence was cloned into pLenti-EF1a-C-Myc-DDK-IRES-Puro cloning vector (Origen #PS100085) using standard methods. Virus production was carried out by using Lenti-X™ Packaging Single Shots Protocol (Clonetech #631276). Viral particles were used to transduce HEK293T cells (ATCC #CRL-3216, ATCC Manassas, Va.), which were subsequently selected with puromycin to generate stable cell line. Cells were maintained at 37° C. and 5% CO2 in DMEM-F12 (Hyclone #SH30023.02) supplemented with 10% heat-inactivated fetal bovine serum (Gibco #16000-044), 2 mM L-glutamine (Gibco #25030-081), 100 U/ml penicillin, and 100 μg/ml streptomycin (Gibco #15140-122).
HEK293T cells carrying the ATF4 luciferase reporter were plated on 96-well plates (Nunc) at 10,000 cells per well. Cells were treated two days after seeding with 100 nM thapsigargin (Tg) (Sigma-Aldrich #T9033) in the presence of 100 nM or 1 μM. For the assessment of the half-maximal inhibitory concentration (IC50) for selected compounds, dose-response assays were performed. Compounds were serially diluted using DMSO ranging from 0.1 nM to 1 μM. Cells without treatment or cells treated with Tg alone were used as controls. Assay plates containing cells were incubated for 3 hours at 37° C.
Luciferase reactions were performed using Luciferase Assay System (Promega #E1501) as specified by the manufacturer. Luminescence was read with an integration time of 1 s and a gain of 110 using a Cytation-5 multi-mode microplate reader (BioTek). Relative luminescence units were normalized to Tg treatment (0% inhibition) and untreated cells (100% inhibition) and the percentage of ATF4 inhibition was calculated.
Percentages of ATF4 inhibition after induction with Tg in the presence of 100 nM or 1 μM of certain test compounds are shown in Table 2. Also shown in Table 2 is the calculated IC50 for certain test compounds. […] Accordingly, inhibition of ATF4 expression as a result of the test compound indicates suppression of the ISR pathway.
A general note: Reporter assays use an easily measured gene product as a stand-in for the process of interest.

The test system of test [1] is Chinese hamster ovary (CHO) cells. Kind of test: Protein translation assay (puromycin labelling, CHO cells). It counts as cell-based. To be noted: media alone = 100%; for activity at 1 µM: Cricetulus griseus, CHO. On the procedure:
Chinese hamster ovary (CHO) cells were maintained at 37° C. and 5% CO2 in Dulbecco's Modified Eagle's Media (DMEM) supplemented with 10% fetal bovine serum, 2 mM L-glutamine, 100 U/ml penicillin, and 100 μg/ml streptomycin. After reaching 80% of confluence, cells were detached and seeded on 6 well plates in complete media, allowed to recover overnight and treated for 2 hours with 1 μM of the test compound (to assess protein synthesis levels in unstressed condition), or for 1 hour with 100 nM or 1 μM of the test compound and then co-treated with 300 nM Tg and 100 nM or 1 μM of the test compound (to assess the recovery of protein synthesis in a stressed condition). Cells treated with Tg alone were used as controls.
After the 2 hours treatments, media were replaced by adding 10 μg/ml puromycin (Sigma Aldrich #P8833) in complete media for 30 min. Media were removed and cells were lysed with SDS-PAGE lysis buffer. Lysates were transferred to 1.5 ml tubes and sonicated for 3 min and total protein amount were quantified using BCA Protein Assay Kit (Pierce). Equal amount of protein (30 μg) was loaded on SDS-PAGE gels. Proteins were transferred onto 0.2 μm PVDF membranes (BioRad) and probed with primary antibodies diluted in Tris-buffered saline supplemented with 0.1% Tween 20 (Merck #S6996184 505) and 3% bovine serum albumin (Rockland #BSA-50).
Puromycin (12D10) (Merck #MABE343) and β-actin (Sigma Aldrich #A5441) antibodies were used as primary antibody. A HRP-conjugated secondary antibody (Rockland) was employed to detect immune-reactive bands using enhanced chemiluminescence (ECL Western Blotting Substrate, Pierce). Quantification of protein bands was done by densitometry using ImageJ software.
Percent increase of protein synthesis in unstressed cells (without Tg treatment) in the presence of media alone or certain test compounds is shown in Table 3 The percentage levels were normalized to the media alone condition, which correspond to 100% protein synthesis.
Percent recovery of protein synthesis in stressed cells (with Tg treatment) due to the test compounds at 100 nM or 1 μM is also shown in Table 3. The levels were normalized to the media alone and to Tg alone conditions, which correspond to 100% and 0% respectively.

Setting [2] is: 2 h, unstressed CHO cells, 1 μM, 2 hours, read-out: % Protein synthesis in unstressed cells (1 μM test compound).
Setting [3] is: CHO cells stressed with 300 nM Tg, 1 μM compound, Tg alone = 0%, read-out: % Recovery of protein expression (1 μM test compound).
Where [4] appears, read: 100 nM thapsigargin, 3 hours, HEK293T ATF4 luciferase reporter.
Where [5] appears, read: Homo sapiens, HEK-293T, 3 h, 100 nM test compound, 100 nM thapsigargin, 3 hours, HEK293T ATF4 luciferase reporter.
The mark [6] stands for this setting: Homo sapiens, HEK-293T, 3 h, 1 μM test compound, 100 nM thapsigargin, 3 hours, HEK293T ATF4 luciferase reporter.
The mark [7] stands for this setting: unstressed CHO cells, 1 μM, 2 hours.
The mark [8] stands for this setting: 100 nM test compound, 100 nM thapsigargin, 3 hours, HEK293T ATF4 luciferase reporter.
Setting [9] is: 1 μM test compound, 100 nM thapsigargin, 3 hours, HEK293T ATF4 luciferase reporter.
Where [10] appears, read: Homo sapiens, HEK-293T, 3 h, 100 nM thapsigargin, 3 hours, HEK293T ATF4 luciferase reporter.

Read-outs that look alike come from different tables or passages of the source.

For orientation: inhibition means the drop in the measured response relative to a control, in per cent. A word on the IC50: it is the point on the concentration scale where inhibition reaches its midpoint. As for `O=C(NN1CCC(NCC(O)COc2ccc(Cl)c(F)c2)CC1)c1cc2cc(Cl)ccc2o1` (stereo not drawn) [Compound 21, 5-chloro-N-(4-((3-(4-chloro-3-fluorophenoxy)-2-hydroxypropyl)amino)piperidin-1-yl)benzofuran-2-carboxamide], in the test on ATF4 (Homo sapiens, HEK-293T, 3 h), the inhibition at 0.1 µM was found to be 68.6%, the inhibition at 1 µM is 86.9% and the IC50 turned out to be 61.9 nM. In addition, the activity at 1 µM in test [1] (setting [2]) is 129%. In test [1] (setting [3]), the activity at 1 µM amounted to 236%.

Consider `O=C(COc1ccc(Cl)c(F)c1)NN1CCC(NCCOc2ccc(Cl)c(F)c2)CC1` [Compound 22, 2-(4-chloro-3-fluorophenoxy)-N-(4-((2-(4-chloro-3-fluorophenoxy)ethyl)amino)piperidin-1-yl)acetamide], for which, in the test on ATF4 (Homo sapiens, HEK-293T, 3 h), the inhibition at 0.1 µM stood at 87.5%, the inhibition at 1 µM is 92.8% and the IC50 came out at 10.3 nM. For the same compound, the activity at 1 µM in test [1] (setting [2]) was found to be 94.8%. The activity at 1 µM in test [1] (setting [3]) was 105%.

`O=C(NN1CCC(NCCOc2ccc(Cl)c(F)c2)CC1)c1ccc2cc(Cl)ccc2n1` [Compound 23, 6-chloro-N-(4-((2-(4-chloro-3-fluorophenoxy)ethyl)amino)piperidin-1-yl)quinoline-2-carboxamide]: in the test with ATF4 (Homo sapiens, HEK-293T, 3 h), the inhibition at 0.1 µM was 67.2%, the inhibition at 1 µM was determined as 89.3% and the IC50 came to 55.6 nM. The activity at 1 µM in test [1] (setting [2]) amounted to 178%. In test [1] (setting [3]), the activity at 1 µM stood at 249%.

With `O=C(NN1CCC(NCCOc2ccc(Cl)c(F)c2)CC1)c1cc2cc(Cl)ccc2o1` [Compound 24, 5-chloro-N-(4-((2-(4-chloro-3-fluorophenoxy)ethyl)amino)piperidin-1-yl)benzofuran-2-carboxamide], in the test on ATF4 (Homo sapiens, HEK-293T, 3 h), the inhibition at 0.1 µM amounted to 88%, the inhibition at 1 µM is 99.5% and the IC50 stood at 32.2 nM. In test [1] (setting [2]), the activity at 1 µM was 144%. Moreover, the activity at 1 µM in test [1] (setting [3]) was 183%.

Turning to `O=C(COc1ccc(Cl)c(F)c1)NN1CCN(C(=O)COc2ccc(Cl)c(F)c2)CC1` [Compound 30, 2-(4-chloro-3-fluorophenoxy)-N-(4-(2-(4-chloro-3-fluorophenoxy)acetyl)piperazin-1-yl)acetamide], in the test on ATF4 (Homo sapiens, HEK-293T, 3 h), the inhibition at 0.1 µM turned out to be 29.5%, the inhibition at 1 µM stood at 97.1% and the 50% inhibitory concentration (IC50) turned out to be 187 nM. Besides, the activity at 1 µM in test [1] (setting [2]) worked out at 49.3%. Further, the activity at 1 µM in test [1] (setting [3]) came to 31.7%.

Regarding `O=C(COc1ccc(Cl)c(F)c1)NC1CCN(NC(=O)C2CNc3cc(Cl)ccc3O2)CC1` (stereo not drawn) [Compound 31, 6-chloro-N-(4-(2-(4-chloro-3-fluorophenoxy)acetamido)piperidin-1-yl)-3,4-dihydro-2H-benzo[b][1,4]oxazine-2-carboxamide], in the test on ATF4 (setting [4]), the IC50 was 4.16 nM. Moreover, the inhibition at 0.1 µM in the test on ATF4 (setting [5]) turned out to be 94.8%. Also, the inhibition at 1 µM with ATF4 (setting [6]) was determined as 92.7%. Further, the “% Protein synthesis in unstressed cells (1 μM test compound)” value (“% Protein synthesis in unstressed cells” for short) in test [1] (setting [7]) stood at 155.4%.

Consider `O=C(COc1ccc(Cl)c(F)c1)NN1CCC(NC(=O)C2CNc3cc(Cl)ccc3O2)CC1` (stereo not drawn) [Compound 32], for which the “% ATF4 inhibition at 100 nM” value with ATF4 (setting [8]) is reported as 85.7%. Also, in the test with ATF4 (setting [4]), the IC50 came to 12 nM. Also, the “% ATF4 inhibition at 1 μM” value in the test with ATF4 (setting [9]) is recorded as 92.4%. Moreover, in test [1] (CHO cells stressed with 300 nM Tg, 1 μM compound, Tg alone = 0%), the “% Recovery of protein expression (1 μM test compound)” value is listed as 74.8%. Moreover, in test [1] (setting [7]), the “% Protein synthesis in unstressed cells” value is reported as 115.7%.

Take `O=C(NN1CCN(CCCOc2ccc(Cl)c(F)c2)CC1)C1CNc2cc(Cl)ccc2O1` (stereo not drawn) [Compound 44, 6-chloro-N-(4-(3-(4-chloro-3-fluorophenoxy)propyl)piperazin-1-yl)-3,4-dihydro-2H-benzo[b][1,4]oxazine-2-carboxamide]: in the test on ATF4 (Homo sapiens, HEK-293T, 3 h), the inhibition at 0.1 µM worked out at 51.5%, the inhibition at 1 µM was determined as 82% and the IC50 was determined as 151 nM. Moreover, the activity at 1 µM in test [1] (setting [2]) was 146%. Also, the activity at 1 µM in test [1] (setting [3]) turned out to be 120%.

Take `O=C(COc1ccc(Cl)cc1)NC1CCN(NC(=O)COc2ccc(Cl)cc2)CC1` [Compound 45, N,N′-(piperidine-1,4-diyl)bis(2-(4-chlorophenoxy)acetamide)]: in the test with ATF4 (Homo sapiens, HEK-293T, 3 h), the inhibition at 0.1 µM came to 92.7%, the inhibition at 1 µM turned out to be 92.4% and the IC50 worked out at 2.6 nM. For the same compound, the activity at 1 µM in test [1] (setting [2]) worked out at 114%. In addition, the activity at 1 µM in test [1] (setting [3]) was 82.3%.

Turning to `O=C(COc1ccc(Cl)c(F)c1)NC1CCN(NC(=O)[C@H]2CNc3cc(Cl)ccc3O2)CC1` [Compound 46, (R)-6-chloro-N-(4-(2-(4-chloro-3-fluorophenoxy)acetamido)piperidin-1-yl)-3,4-dihydro-2H-benzo[b][1,4]oxazine-2-carboxamide], the inhibition at 0.1 µM in the test on ATF4 (setting [5]) came out at 100%. Besides, the IC50 in the test with ATF4 (setting [10]) turned out to be 3.6 nM. In addition, the inhibition at 1 µM in the test with ATF4 (setting [6]) was 99.3%. Also, the activity at 1 µM in test [1] (setting [2]) came to 114%; in test [1] (setting [3]), 63.3%.

Regarding `O=C(COc1ccc(Cl)c(F)c1)NC1CCN(NC(=O)[C@@H]2CNc3cc(Cl)ccc3O2)CC1` [Compound 47, (S)-6-chloro-N-(4-(2-(4-chloro-3-fluorophenoxy)acetamido)piperidin-1-yl)-3,4-dihydro-2H-benzo[b][1,4]oxazine-2-carboxamide], in the test with ATF4 (setting [8]), the “% ATF4 inhibition at 100 nM” value came to 98.2%. In addition, in the test with ATF4 (setting [4]), the IC50 stood at 1.98 nM. For the same compound, the “% ATF4 inhibition at 1 μM” value in the test with ATF4 (setting [9]) stood at 99.0%. Also, the “% Protein synthesis in unstressed cells” value in test [1] (setting [7]) turned out to be 89.4%.

`O=C(NN1CCN(C[C@@H](O)COc2ccc(Cl)c(F)c2)CC1)c1cc2cc(Cl)ccc2o1` [Compound 48, (R)-5-chloro-N-(4-(3-(4-chloro-3-fluorophenoxy)-2-hydroxypropyl)piperazin-1-yl)benzofuran-2-carboxamide]: the inhibition at 0.1 µM with ATF4 (setting [5]) worked out at 96.5%. Further, the IC50 in the test with ATF4 (setting [10]) came out at 3.36 nM. The inhibition at 1 µM with ATF4 (setting [6]) is 97.4%. The activity at 1 µM in test [1] (setting [2]) stood at 85.3%; in test [1] (setting [3]), 76.2%.

With `O=C(NN1CCN(C[C@H](O)COc2ccc(Cl)c(F)c2)CC1)c1cc2cc(Cl)ccc2o1` [Compound 49, (S)-5-chloro-N-(4-(3-(4-chloro-3-fluorophenoxy)-2-hydroxypropyl)piperazin-1-yl)benzofuran-2-carboxamide], the inhibition at 0.1 µM in the test with ATF4 (setting [5]) came out at 55.4%. Further, in the test with ATF4 (setting [10]), the IC50 came to 69.7 nM. Also, the inhibition at 1 µM in the test with ATF4 (setting [6]) is 100%. Moreover, the activity at 1 µM in test [1] (setting [2]) turned out to be 82.3%; in test [1] (setting [3]) it was 70.7%.
